Laboratory results from patent US8088936B2, “Leukotriene B4 inhibitors” (Hoffman-La Roche Inc., priority 2009, dated 2012).
pIC50: −log10 of the molar value.

Test system: Human leukemia HL-60 cells endogenously expressing BLT1 and BLT2 receptors
Assay: Ca2+ flux assay for LTB4 antagonist assay (HL-60 FLIPR)
Type: cell-based
Conditions: retinoic acid induced HL-60 cells, inhibition of LTB4-induced Ca2+ flux, 30 min preincubation; read-out: LTB4 antagonism (HL-60 FLIPR)
Protocol: Assay of Compounds for Inhibition of LTB4 Activity
Ca^2+Flux Assay for LTB4 Antagonist Assay
Human leukemia HL-60 cells endogenously expressing BLT1 and BLT2 receptors were cultured in RPMI-1640 medium supplemented with 20% fetal bovine serum, 2 mM glutamine, 100 U/ml penicillin and 100 ug/ml streptomycin.
Seventy two hours prior to experiment cells are counted using ViaCount reagent, centrifuged and resuspended at 2.0×10^5 cells/ml density with the complete growth media containing 1 μM Retinoic Acid (Sigma).
On a day of the experiment loading buffer (Calcium-3 Assay Kit, Molecular Devices) was prepared by dissolving the contents of one vial (Express Kit) into 500 ml Hank's Balanced Salt Solution containing 20 mM HEPES and 5 mM probenecid. Equal volume of the loading buffer was mixed with the replacement buffer (Hank's Balanced Salt Solution containing 20 mM HEPES, 0.05% BSA and 5 mM probenecid). Retinoic Acid induced HL-60 cells were counted using ViaCount reagent, centrifuged and resuspended at 2.0×10^6 cells/ml density with the loading buffer/replacement buffer, dispensed into 384 well black/clear microplates (Falcon) (25 μl/well) and placed in a 37° C./5% CO2 incubator for 1 hour.
During the incubation, test compounds were prepared at 6× the desired concentration in HBSS/20 mM HEPES/0.05% BSA as well as LTB4 (Biomol) was prepared at 2.2× concentration in HBSS/20 mM HEPES/0.5% BSA buffer.
After the incubation, both the cell and compound plates were brought to the FLIPR and 5 μl of the diluted compounds were transferred to the cell plates by the FLIPR. Plates were then incubated for 30 min at room temperature. After the ½ hour incubation, plates were returned to the FLIPR and 25 μl of 2.2×LTB4 was added to the cell plates. During the assay, fluorescence readings were taken simultaneously from all 384 wells of the cell plate every 1.5 seconds. Five readings were taken to establish a stable baseline, then 25 μl (LTB4) of sample was rapidly and simultaneously added to each well of the cell plate. The fluorescence was continuously monitored before, during and after sample addition for a total elapsed time of 100 seconds. Responses (increase in peak fluorescence) in each well following agonist addition was determined. The initial fluorescence reading from each well, prior to ligand stimulation, was used a zero baseline value for the data from that well. The responses are expressed as % inhibition of the neutral control (neural control: wells that received buffer plus DMSO but no test compound).

SMILES	pIC50
CCOc1cc(OCCCCCCc2cccc(OCCCC(=O)O)c2CCC(=O)O)cc(-c2ccc(Cl)cc2)c1 [Example 49, 4-[2-(2-Carboxy-ethyl)-3-[6-(4′-chloro-5-ethoxy-biphenyl-3-yloxy)-hexyl]-phenoxy]-butyric acid]	8.22
CN(C)Cc1cc(OCCCCCCc2cccc(OCCCC(=O)O)c2CCC(=O)O)cc(-c2ccc3c(c2)OCO3)c1 [Example 30, 4-[3-[6-(3-Benzo[1,3]dioxol-5-yl-5-dimethylaminomethyl-phenoxy)-hexyl]-2-(2-carboxy-ethyl)-phenoxy]-butyric acid]	10.00
CN(C)Cc1cc(OCCCCCCc2cccc(OCCCC(=O)O)c2CCC(=O)O)cc(-c2cccc(F)c2)c1 [Example 36, 4-{2-(2-Carboxy-ethyl)-3-[6-(5-dimethylaminomethyl-3′-fluoro-biphenyl-3-yloxy)-hexyl]-phenoxy}-butyric acid]	9.85
CN(C)Cc1cc(OCCCCCCc2cccc(OCCCC(=O)O)c2CCC(=O)O)cc(-c2ccc(C(F)(F)F)cc2)c1 [Example 37, 4-{2-(2-Carboxy-ethyl)-3-[6-(5-dimethylaminomethyl-4′-trifluoromethyl-biphenyl-3-yloxy)-hexyl]phenoxy}-butyric acid]	9.43
CCOc1cc(OCCCCCCc2cccc(OCCCC(=O)O)c2CCC(=O)O)cc(-c2ccc3c(c2)OCCO3)c1 [Example 46, 4-[2-(2-Carboxy-ethyl)-3-{6-[3-(2,3-dihydro-benzo[1,4]dioxin-6-yl)-5-ethoxy-phenoxy]-hexyl}-phenoxy]-butyric acid]	8.95
O=C(O)CCCOc1cccc(CCCCCCOc2cc(CO)cc(-c3ccccc3)c2)c1CCC(=O)O [Example 2, 4-{2-(2-Carboxy-ethyl)-3-[6-(5-hydroxymethyl-biphenyl-3-yloxy)-hexyl]-phenoxy}-butyric acid]	7.61
CC(C)C(=O)c1cc(OCCCCCCc2cccc(OCCCC(=O)O)c2CCC(=O)O)cc(-c2ccc3c(c2)OCO3)c1 [Example 70, 4-[3-[6-(3-Benzo[1,3]dioxol-5-yl-5-isobutyryl-phenoxy)-hexyl]-2-(2-carboxy-ethyl)-phenoxy]-butyric acid]	9.51
O=C(O)CCCOc1cccc(CCCCCCOc2cc(C(=O)C3CC3)cc(-c3ccc4c(c3)OCO4)c2)c1CCC(=O)O [Example 72, 4-[3-[6-(3-Benzo[1,3]dioxol-5-yl-5-cyclopropanecarbonyl-phenoxy)-hexyl]-2-(2-carboxy-ethyl)-phenoxy]-butyric acid]	9.80
CCOc1cc(OCCCCCCc2cccc(OCCCC(=O)O)c2CCC(=O)O)cc(-c2cccc(F)c2)c1 [Example 47, 4-[2-(2-Carboxy-ethyl)-3-[6-(5-ethoxy-3′-fluoro-biphenyl-3-yloxy)-hexyl]-phenoxy]-butyric acid]	8.63
O=C(O)CCCOc1cccc(CCCCCCOc2cc(CO)cc(-c3ccc4c(c3)OCCO4)c2)c1CCC(=O)O [Example 6, 4-(2-(2-Carboxy-ethyl)-3-{6-[3-(2,3-dihydro-benzo[1,4]dioxin-6-yl)-5-hydroxymethylphenoxy]-hexyl}-phenoxy)-butyric acid]	8.13

Continued, values first:

pIC50	SMILES
8.19	CCOCc1cc(OCCCCCCc2cccc(OCCCC(=O)O)c2CCC(=O)O)cc(-c2ccc(Cl)cc2)c1 [Example 28, 4-{2-(2-Carboxy-ethyl)-3-[6-(5-ethoxymethyl-4′-chloro-biphenyl-3-yloxy)-hexyl]-phenoxy}-butyric acid]
6.47	COCc1cc(OCCCCCCc2cccc(OCCCC(=O)O)c2CCC(=O)O)cc(-c2cncnc2)c1 [Example 22, 4-[2-(2-Carboxy-ethyl)-3-[6-(3-methoxymethyl-5-pyrimidin-5-yl-phenoxy)-hexyl]-phenoxy]-butyric acid]
8.86	COCc1cc(OCCCCCCc2cccc(OCCCC(=O)O)c2CCC(=O)O)cc(-c2ccc3c(c2)OCCO3)c1 [Example 12, 4-(2-(2-Carboxy-ethyl)-3-{6-[3-(2,3-dihydro-benzo[1,4]dioxin-6-yl)-5-methoxymethyl-phenoxy]-hexyl}-phenoxy)-butyric acid]
7.82	COCc1cc(OCCCCCCc2cccc(OCCCC(=O)O)c2CCC(=O)O)cc(-c2ccc(OC(F)(F)F)cc2)c1 [Example 20, 4-{2-(2-Carboxy-ethyl)-3-[6-(5-methoxymethyl-4′-trifluoromethoxy-biphenyl-3-yloxy)-hexyl]-phenoxy}-butyric acid]
7.87	COCc1cc(OCCCCCCc2cccc(OCCCC(=O)O)c2CCC(=O)O)cc(-c2cccc(Cl)c2)c1 [Example 18, 4-{2-(2-Carboxy-ethyl)-3-[6-(3′-chloro-5-methoxymethyl-biphenyl-3-yloxy)-hexyl]-phenoxy}-butyric acid]
